Test [1] deals with T1, Sigma^70 saturated E. coli RNA Polymerase (Escherichia coli, UniProt P0A7Z4+P0A800+P0A8T7+P0A8V2).
T1 construct: purchased Epicenter
The test can be described thus: IC50 assay, inhibition of RNA polymerase. It counts as biochemical. Here is the method: One common assay involves evaluation of the compounds as RNA polymerase inhibitors. In this assay, buffer (250 mM KCl, 5% glycerol, 10 mM MgCl2, 0.1 mg/ml BSA) is combined with 6 mM β-M.E., PT5 DNA template, and 1.3 μg/rxn Sigma^70 saturated E. coli RNA Polymerase (Epicenter). The compound is then added in a manner not to exceed 5% DMSO. Nucleotide triphosphates are then added at the following concentration: 250 μM ATP, CTP and UTP with 100 μM cold CTP and 50 μM α-^32P CTP. The mixture is incubated for 10 min at about 37° C. A [2×] loading buffer is added and the mixture is then run on a 6% urea denaturing PAGE until bromophenol blue reaches the edge of plate. The gel is soaked (about 20 minutes in 10% MeOH and 10% acetic acid, to remove urea), then dried (about 55 minutes at about 85° C. (BioRad Gel Drier)) and exposed to a Phospho Imaging Plate for 1 hour. The plate is then read on a Fujix Bas1000 Imaging System and quantified using MacBas v2.0 software. An IC50 (in μM) can be calculated as the concentration of a drug which reduces the enzyme activity to 50% of the control.
In this assay, buffer (250 mM KCl, 5% Glycerol, 10 mM MgCl2, 0.1 mg/ml bovine serum albumin (BSA)) is combined with 6 mM β-mercaptoethanol, PT5 DNA template, and 1.3 μg/rxn Sigma^70 saturated E. coli RNA Polymerase (obtained from Epicenter). The compound is then added in a manner not to exceed 5% DMSO. Nucleotide triphosphates are then added at the following concentration: 250 μM ATP, CTP and UTP with 100 μM cold CTP and 50 μM α-32P CTP. The mixture is incubated for 10 min at about 37° C. A [2×] loading buffer is added and the mixture is then run on a 6% urea denaturing PAGE until bromophenol blue reaches the edge of plate. The gel is soaked (about 20 minutes in 10% MeOH and 10% acetic acid, to remove urea), then dried (about 55 minutes at about 85° C. (BioRad Gel Drier)) and exposed to a Phospho Imaging Plate for 1 hour. The plate is then read on a Fujix Bas1000 Imaging System and quantified using MacBas v2.0 software. An IC50 (in μM) can be calculated as the concentration of a compound of the invention that reduces the enzyme activity to 50% of the control. For the sake of clarity, the above-described assay is used to determine the IC50 values referenced in the claims. However, the skilled artisan will recognize that other methods can be used to determine an IC50 value.

A further test concerns B. su. Kind of test: Minimum Inhibitory Concentration assay, B. su. It counts as cell-based. The following applies: LB medium, 16 hours, 37° C. Here is the method:
(§1) For Minimum Inhibitory Concentration (MIC) determinations for selected bacteria, log phase growing bacteria are re-suspended at 1×10^5 bacteria per mL in LB medium. The compound is added and two-fold dilutions are made. The final volume in the 96-well plate is about 100 μL. The plate is incubated at 37° C. in the dark with shaking. After 16 hours of incubation, growth is monitored by reading A600 or by visual inspection. MIC is defined as the minimum concentration of drug resulting in inhibition of visible growth of bacterial under the conditions described (above) in National Committee for Clinical Laboratory Standards 1993. Methods for dilution antimicrobial susceptibility tests for bacteria that grow aerobically. Approved standard M7-A3; National Committee for Clinical Laboratory Standards: Villanova, Pa.
as §1, with “MIC” for “Minimum Inhibitory Concentration (MIC)”

A further test deals with E.c(tolC). The test can be described thus: Minimum Inhibitory Concentration assay, E.c(tolC). The following applies: 16 h, read-out: MIC (μM) E.c(tolC). It is filed as cell-based. The procedure:
as §1
as §1, with “MIC” for “Minimum Inhibitory Concentration (MIC)”

The next test deals with S. au. Kind of test: Minimum Inhibitory Concentration assay, S. au. It counts as cell-based. The following applies: LB medium, 16 hours, 37° C. Here is the method: as §1
as §1, with “MIC” for “Minimum Inhibitory Concentration (MIC)”

The mark [2] stands for this setting: Table 1, compounds of Formula 1.
Setting [3] is: Table 2, compounds of Formula 13.

Drawing on patent US20020049205A1, “Pyrazole antimicrobial agents” (priority 2000, published 2002), this text covers IC50 and MIC for 27 compounds.

T1 sequence (P0A8V2 whole entry): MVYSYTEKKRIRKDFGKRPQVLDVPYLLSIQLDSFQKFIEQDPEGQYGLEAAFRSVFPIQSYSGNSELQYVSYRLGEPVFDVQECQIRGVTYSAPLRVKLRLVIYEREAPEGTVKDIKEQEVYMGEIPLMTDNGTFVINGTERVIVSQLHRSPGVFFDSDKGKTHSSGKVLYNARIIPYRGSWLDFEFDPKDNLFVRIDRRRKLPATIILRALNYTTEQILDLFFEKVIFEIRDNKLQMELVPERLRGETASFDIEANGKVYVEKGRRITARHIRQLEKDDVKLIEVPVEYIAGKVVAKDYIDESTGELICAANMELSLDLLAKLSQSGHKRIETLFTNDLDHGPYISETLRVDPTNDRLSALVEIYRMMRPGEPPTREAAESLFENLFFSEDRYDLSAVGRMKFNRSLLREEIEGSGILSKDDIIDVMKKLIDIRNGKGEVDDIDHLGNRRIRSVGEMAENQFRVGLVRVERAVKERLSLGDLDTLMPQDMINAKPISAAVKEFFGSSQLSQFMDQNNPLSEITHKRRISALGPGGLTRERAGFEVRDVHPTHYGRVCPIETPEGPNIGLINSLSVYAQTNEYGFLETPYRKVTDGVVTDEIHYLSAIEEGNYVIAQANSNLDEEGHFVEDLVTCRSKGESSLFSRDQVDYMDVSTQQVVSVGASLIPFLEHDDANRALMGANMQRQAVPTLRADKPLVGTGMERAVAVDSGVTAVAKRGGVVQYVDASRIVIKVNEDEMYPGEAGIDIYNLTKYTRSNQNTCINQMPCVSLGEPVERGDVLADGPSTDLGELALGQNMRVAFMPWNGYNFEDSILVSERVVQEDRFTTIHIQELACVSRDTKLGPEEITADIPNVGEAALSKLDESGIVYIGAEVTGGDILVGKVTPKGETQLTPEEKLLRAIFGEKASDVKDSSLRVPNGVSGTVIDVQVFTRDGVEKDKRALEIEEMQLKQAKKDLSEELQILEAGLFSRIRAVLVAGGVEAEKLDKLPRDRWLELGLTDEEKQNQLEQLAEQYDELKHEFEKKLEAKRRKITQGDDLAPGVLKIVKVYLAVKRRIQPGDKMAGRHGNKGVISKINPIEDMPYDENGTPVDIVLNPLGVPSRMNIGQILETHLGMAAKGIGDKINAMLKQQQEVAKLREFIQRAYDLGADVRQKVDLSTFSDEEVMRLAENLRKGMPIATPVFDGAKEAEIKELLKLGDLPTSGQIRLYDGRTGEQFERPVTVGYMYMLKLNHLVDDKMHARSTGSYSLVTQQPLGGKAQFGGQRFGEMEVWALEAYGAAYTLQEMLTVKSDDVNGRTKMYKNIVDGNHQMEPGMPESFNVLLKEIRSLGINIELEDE
T1 sequence (P0A8T7 whole entry): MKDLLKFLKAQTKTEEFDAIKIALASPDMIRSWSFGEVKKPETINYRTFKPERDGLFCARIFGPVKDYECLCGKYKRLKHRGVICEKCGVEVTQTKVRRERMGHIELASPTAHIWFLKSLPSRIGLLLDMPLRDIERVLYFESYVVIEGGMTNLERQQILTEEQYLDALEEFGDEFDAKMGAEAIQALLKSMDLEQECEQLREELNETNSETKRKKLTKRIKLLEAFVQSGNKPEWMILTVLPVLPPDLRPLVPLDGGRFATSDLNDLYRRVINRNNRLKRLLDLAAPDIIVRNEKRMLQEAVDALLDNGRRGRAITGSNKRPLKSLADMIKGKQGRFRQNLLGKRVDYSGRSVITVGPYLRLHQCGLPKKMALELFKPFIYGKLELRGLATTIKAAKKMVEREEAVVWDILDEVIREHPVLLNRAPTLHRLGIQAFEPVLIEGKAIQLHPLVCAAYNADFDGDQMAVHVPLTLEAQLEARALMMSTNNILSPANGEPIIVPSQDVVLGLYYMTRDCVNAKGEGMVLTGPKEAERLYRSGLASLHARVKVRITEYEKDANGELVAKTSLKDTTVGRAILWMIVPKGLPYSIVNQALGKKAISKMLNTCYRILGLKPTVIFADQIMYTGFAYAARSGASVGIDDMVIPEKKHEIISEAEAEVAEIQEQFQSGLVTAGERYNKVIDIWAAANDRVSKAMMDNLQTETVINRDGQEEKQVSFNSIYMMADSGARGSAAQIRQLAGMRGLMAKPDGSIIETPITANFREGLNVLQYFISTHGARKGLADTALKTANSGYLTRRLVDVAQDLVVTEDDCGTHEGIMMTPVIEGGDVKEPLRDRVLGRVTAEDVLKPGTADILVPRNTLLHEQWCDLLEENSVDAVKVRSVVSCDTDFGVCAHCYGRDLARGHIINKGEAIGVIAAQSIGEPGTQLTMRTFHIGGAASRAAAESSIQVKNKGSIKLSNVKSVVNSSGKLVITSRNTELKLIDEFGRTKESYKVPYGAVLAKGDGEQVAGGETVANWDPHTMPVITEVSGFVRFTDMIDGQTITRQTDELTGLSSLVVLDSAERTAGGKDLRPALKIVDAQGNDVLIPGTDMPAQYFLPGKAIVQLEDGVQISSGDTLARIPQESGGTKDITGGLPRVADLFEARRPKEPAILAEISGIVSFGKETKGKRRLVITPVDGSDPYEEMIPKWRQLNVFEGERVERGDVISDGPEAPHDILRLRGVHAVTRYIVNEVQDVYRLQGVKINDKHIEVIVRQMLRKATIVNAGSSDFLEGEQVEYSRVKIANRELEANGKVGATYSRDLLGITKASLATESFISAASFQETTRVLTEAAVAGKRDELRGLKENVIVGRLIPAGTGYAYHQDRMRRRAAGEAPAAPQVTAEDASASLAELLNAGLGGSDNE
T1 sequence (P0A7Z4 whole entry): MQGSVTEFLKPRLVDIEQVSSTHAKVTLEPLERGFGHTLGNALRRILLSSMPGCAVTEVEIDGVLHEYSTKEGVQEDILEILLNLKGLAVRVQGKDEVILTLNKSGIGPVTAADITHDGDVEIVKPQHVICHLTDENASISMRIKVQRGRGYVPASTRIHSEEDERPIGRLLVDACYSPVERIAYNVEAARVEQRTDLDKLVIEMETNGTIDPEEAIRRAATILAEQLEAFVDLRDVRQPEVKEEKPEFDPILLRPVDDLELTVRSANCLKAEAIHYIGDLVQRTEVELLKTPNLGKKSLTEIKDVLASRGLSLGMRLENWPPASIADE
T1 sequence (P0A800 whole entry): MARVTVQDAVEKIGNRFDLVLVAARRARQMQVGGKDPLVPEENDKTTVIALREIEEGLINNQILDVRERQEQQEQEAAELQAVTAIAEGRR

By IC50 is commonly meant the point on the concentration scale where inhibition reaches its midpoint. Read a high IC50 as a need for much substance. A word on the MIC: it is the least concentration at which growth counts as inhibited. Take `O=[N+]([O-])c1cccc(-c2c[nH]nc2-c2ccc(F)c(C(F)(F)F)c2)c1` [Example 32]: in test [1] (setting [2]), the 50% inhibitory concentration (IC50) was less than 500 µM. Further, the MIC against B. su (Table 1) was less than 500 µM; in the test with E.c(tolC), greater than 500 µM; against S. au (Table 1), less than 500 µM.

On to `Cc1ccc(-c2[nH]ncc2-c2ccccc2)cc1` [Example 5], for which the IC50 in test [1] (setting [2]) is greater than 500 µM. In addition, the MIC with B. su (Table 1), with E.c(tolC) and in the test on S. au (Table 1) was less than 500 µM throughout.

As to `COc1ccc(-c2[nH]ncc2-c2ccccc2)cc1` [Example 6], the IC50 in test [1] (setting [2]) is greater than 500 µM. Further, the MIC in the test on B. su (Table 1), in the test with E.c(tolC) and against S. au (Table 1) was less than 500 µM in each case.

`CS(=O)(=O)Nc1cccc(-c2c[nH]nc2-c2ccc(F)c(C(F)(F)F)c2)c1` [Example 36]: the IC50 in test [1] (setting [2]) is less than 500 µM. Also, the MIC against B. su (Table 1), in the test on E.c(tolC) and with S. au (Table 1) was less than 500 µM throughout.

As for `Nc1cccc(-c2c[nH]nc2-c2ccc(F)c(C(F)(F)F)c2)c1` [Example 34], the IC50 in test [1] (setting [2]) is less than 500 µM. In addition, the MIC against B. su (Table 1), in the test with E.c(tolC) and with S. au (Table 1) was less than 500 µM in each case.

Take `O=[N+]([O-])c1cccc(-c2c[nH]nc2-c2ccc(N3CCCCC3)c(C(F)(F)F)c2)c1` [Example 33]: the IC50 in test [1] (setting [2]) was less than 500 µM. The MIC in the test with B. su (Table 1) was less than 500 µM; in the test on E.c(tolC), greater than 500 µM; in the test on S. au (Table 1) it was less than 500 µM.

For the compound `NC1CCN(c2ccc(-c3c[nH]nc3-c3ccc(F)cc3)cc2C(F)(F)F)C1` (stereo not drawn) [Example 24], the IC50 in test [1] (setting [2]) was less than 500 µM. Also, the MIC in the test on B. su (Table 1), in the test on E.c(tolC) and against S. au (Table 1) was less than 500 µM in each case.

In the case of `Clc1ccc(-c2[nH]ncc2-c2ccccc2)cc1` [Example 3], the IC50 in test [1] (setting [2]) was greater than 500 µM. The MIC with B. su (Table 1), with E.c(tolC) and in the test on S. au (Table 1) was greater than 500 µM in each case.

Consider `O=C(NCCCNc1cc(-c2c[nH]nc2-c2ccc(F)cc2)cc(C(F)(F)F)c1)Nc1ccc(Cl)c(C(F)(F)F)c1` [Example 31], for which the IC50 in test [1] (setting [2]) was less than 500 µM. Moreover, the MIC was less than 500 µM against B. su (Table 1), greater than 500 µM in the test on E.c(tolC) and less than 500 µM in the test on S. au (Table 1).

`Fc1ccc(-c2cn[nH]c2-c2cccc(Cl)c2)cc1C(F)(F)F` [Example 11]: the IC50 in test [1] (setting [2]) was greater than 500 µM. The MIC with B. su (Table 1), with E.c(tolC) and in the test on S. au (Table 1) was less than 500 µM in each case.

In test [1] (setting [3]), `O=c1[nH][nH]c(-c2ccc(Cl)cc2)c1-c1ccccc1` [Example 15, 5-(4-chlorophenyl)-4-phenyl-1,2-dihydropyrazol-3-one] had an IC50 greater than 500 µM. Further, the MIC in the test on B. su (Table 2), in the test with E.c(tolC) and with S. au (Table 2) was less than 500 µM in each case.

Compound `NCCCNc1cc(-c2c[nH]nc2-c2ccc(F)cc2)cc(C(F)(F)F)c1` [Example 30] showed an IC50 in test [1] (setting [2]) greater than 500 µM. The MIC against B. su (Table 1), with E.c(tolC) and with S. au (Table 1) was less than 500 µM each time.

Regarding `O=c1[nH][nH]c(-c2ccccc2)c1-c1cccc(C(F)(F)F)c1` [Example 16, 5-phenyl-4-(3-trifluoromethylphenyl)-1,2-dihydropyrazol-3-one], the IC50 in test [1] (setting [3]) is greater than 500 µM. The MIC in the test on B. su (Table 2), in the test on E.c(tolC) and in the test with S. au (Table 2) was less than 500 µM each time.

With `CCNC1CCN(c2ccc(-c3c[nH]nc3-c3ccc(F)cc3)cc2C(F)(F)F)C1` (stereo not drawn) [Example 19], the IC50 in test [1] (setting [2]) is less than 500 µM. For the same compound, the MIC against B. su (Table 1), in the test with E.c(tolC) and against S. au (Table 1) was less than 500 µM throughout.

In test [1] (setting [2]), `O=C(NCCNc1cc(-c2c[nH]nc2-c2ccc(F)cc2)cc(C(F)(F)F)c1)Nc1ccc(Cl)c(C(F)(F)F)c1` [Example 29] returned an IC50 of less than 500 µM. For the same compound, the MIC is less than 500 µM with B. su (Table 1), greater than 500 µM in the test with E.c(tolC) and less than 500 µM with S. au (Table 1).

The compound `Fc1ccc(-c2n[nH]cc2-c2ccc(NCCNCc3ccccc3)c(C(F)(F)F)c2)cc1` [Example 21] had an IC50 in test [1] (setting [2]) of less than 500 µM. The MIC against B. su (Table 1), with E.c(tolC) and against S. au (Table 1) was less than 500 µM each time.

Take `O=C(NCCNc1cc(-c2c[nH]nc2-c2ccc(F)cc2)cc(C(F)(F)F)c1)c1ccccc1` [Example 28]: the IC50 in test [1] (setting [2]) is greater than 500 µM. In addition, the MIC against B. su (Table 1), in the test with E.c(tolC) and with S. au (Table 1) was less than 500 µM in each case.

Consider `O=c1[nH][nH]c(-c2ccc(Cl)cc2)c1-c1cccc(C(F)(F)F)c1` [Example 17, 5-(4-chlorophenyl)-4-(3-trifluoromethylphenyl)-1,2-dihydropyrazol-3-one], for which the IC50 in test [1] (setting [3]) was less than 500 µM. In addition, the MIC with B. su (Table 2), with E.c(tolC) and against S. au (Table 2) was less than 500 µM in each case.

The compound `Fc1ccc(-c2n[nH]cc2-c2ccc(F)c(C(F)(F)F)c2)cc1` [Example 18] displayed an IC50 in test [1] (setting [2]) of less than 500 µM. Further, the MIC with B. su (Table 1), in the test on E.c(tolC) and with S. au (Table 1) was less than 500 µM in each case.

Take `NCCNc1cc(-c2c[nH]nc2-c2ccc(F)cc2)cc(C(F)(F)F)c1` [Example 27]: the IC50 in test [1] (setting [2]) is less than 500 µM. For the same compound, the MIC against B. su (Table 1), in the test with E.c(tolC) and in the test with S. au (Table 1) was less than 500 µM in each case.

In test [1] (Table 3, heteroaryl compounds), `Fc1cccc(-c2c[nH]nc2-c2ccsc2)c1` [Example 38] displayed an IC50 of less than 500 µM. The MIC against B. su (Table 3), with E.c(tolC) and against S. au (Table 3) was less than 500 µM in each case.

As to `Cc1c(-c2c[nH]nc2-c2ccc(F)cc2)sc2ccccc12` [Example 37], the IC50 in test [1] (Table 3, heteroaryl compounds) is less than 500 µM. Moreover, the MIC in the test with B. su (Table 3), in the test on E.c(tolC) and in the test on S. au (Table 3) was less than 500 µM in each case.

The compound `O=C(COc1ccccc1)Nc1cccc(-c2c[nH]nc2-c2ccc(F)c(C(F)(F)F)c2)c1` [Example 35] returned an IC50 in test [1] (setting [2]) of less than 500 µM. For the same compound, the results for the MIC with B. su (Table 1), in the test with E.c(tolC) and against S. au (Table 1) were greater than 500 µM, greater than 500 µM and less than 500 µM, respectively.

As to `Clc1cccc(-c2cn[nH]c2-c2ccc(Cl)c(Cl)c2)c1` [Example 7], the IC50 in test [1] (setting [2]) is greater than 500 µM. The MIC in the test with B. su (Table 1), in the test on E.c(tolC) and in the test on S. au (Table 1) was less than 500 µM throughout.

In test [1] (setting [2]), `O=C(Nc1ccc(Cl)c(C(F)(F)F)c1)NC1CCN(c2ccc(-c3c[nH]nc3-c3ccc(F)cc3)cc2C(F)(F)F)C1` (stereo not drawn) [Example 25] displayed an IC50 of less than 500 µM. The MIC against B. su (Table 1) was less than 500 µM; in the test on E.c(tolC), greater than 500 µM; against S. au (Table 1), less than 500 µM.

`FC(F)(F)c1cc(-c2cn[nH]c2-c2cccc(Cl)c2)ccc1Cl` [Example 9]: in test [1] (setting [2]), the IC50 was less than 500 µM. The MIC against B. su (Table 1), in the test with E.c(tolC) and in the test on S. au (Table 1) was less than 500 µM each time.

`Fc1ccc(-c2n[nH]cc2-c2ccc(NCCN3CCNCC3)c(C(F)(F)F)c2)cc1` [Example 20] yielded an IC50 in test [1] (setting [2]) of less than 500 µM. Further, the MIC in the test with B. su (Table 1), in the test with E.c(tolC) and in the test with S. au (Table 1) was less than 500 µM in each case.
